Measured values from patent US9463330B2, “Delivery of skin care products” (INTERNATIONAL SCIENTIFIC PTY LTD, priority 2010, dated 2016).

Experiments:
human epidermis [1] = test: In vitro diffusion of urea across human epidermal membranes in Franz-type cells (Example 5); assay type: in vitro ADME; details: 5% urea gel
From the text: • 1) 5% w/w urea in VersaBase Gel (PCCA, Huston, Tex.). • 2) 11 mm diameter discs of flexible magnetic array matrix (ETP008) material and “passive” non-magnetic material which are identical to the active materials in all respects except for the presence of the magnetic field. • 3) Passive occlusive material consisting of a polymer film of similar thickness and cut to the same dimensions as the active magnetic polymer material. • 4) Epidermal membranes obtained from human skin sourced from abdominal region following abdominoplasty surgery. • 5) Pyrex glass Franz-type diffusion cells (enabling permeation across epidermal membranes of cross sectional area approximately 1.18 cm^2); receptor volume approximately 3.5 mL. • 6) Phosphate buffered saline (PBS). • 7) Thermostatted water bath with magnetic stirring capability. • 8) DMAB reagent (4% w/v) prepared with conc. sulphuric acid (4% v/v) in alcohol (95%). • 9) Digital portable LCR meter (TH2821/A/B, Changzhou Tonghui Electronic Co., Ltd, China). Method Preparation of Epidermal Membranes
Epidermal membranes were obtained by the heat separation method (Kligman & Christophers, 1963 Preparation of isolated sheets of human stratum corneum. Arch. Dermatol. 88: 70-73).
• 1) The membrane was placed between the donor and receptor compartment of the cell and allowed to equilibrate for 1 h with PBS in the receptor compartment which was stirred continuously with a magnetic stirrer. • 2) PBS was placed in the donor (1 mL) and receptor (approx. 3.5 mL) compartments of the cell which were then placed in a water bath maintained at 37±0.5° C. • 3) Epidermal membrane integrity was determined by visual inspection over a bright light and electrical resistance (kΩ) measurements using a digital portable LCR meter (TH2821/A/B, Changzhou Tonghui Electronic Co., Ltd, China). The measurements were taken by immersing the stainless steel probe lead tips, one each in the donor and receptor compartments (Fasano et al, 2002 Rapid integrity assessment of rat and human epidermal membranes for in vitro dermal regulatory testing: correlation of electrical resistance with tritiated water permeability. Toxicol. In Vitro 16: 731-40). […] Spectroscopic Analyses:
Urea quantification was based on the analytical method of Knorst et al 1997 (Analytical methods for measuring urea in pharmaceutical formulations. J. Pharm. Biomed. Anal. 15: 1627-32), a modified derivatisation by p-dimethylaminobenzaldehyde (DMAB) to convert urea into a coloured compound.
Derivatisation of urea in skin diffusate employed equal volumes of sample solution and the DMAB reagent (4% w/v) which was prepared with conc. sulphuric acid (4% v/v) in alcohol (95%). In this case 200 μL of the urea sample was mixed with 200 μL of the DMAB reagent. After 10 min the absorbance of the coloured derivatised solution was measured at 420 nm using a UVmini-1240 UV-Vis spectrophotometer (Shimadzu Scientific Instruments) against an appropriate reagent blank (receptor solution processed as for skin permeation receptor solution samples). Spectrophotometric analysis was carried out for quantitative analysis of urea that permeated the skin. […] The limit of detection (LOD) and limit of quantitation (LOQ) of the assay were 0.83 and 2.5 μg/mL respectively.
The results were compiled from nine cells containing the magnetic array film and eight control cells containing the passive non-magnetic film. A comparison of the cumulative amount of urea penetrating the epidermis to the receptor solution (μg/cm^2) versus time (mins) was plotted for passive and magnetic array enhanced applications (FIG. 16).

human epidermal tissues = test: Time dependent epidermal thickness change after 5% Urea gel, four magnetic array configurations vs passive (Example 3); assay type: in vivo; details: 30 and 60 minutes
Description: As a further example, an additional experiment was undertaken to explore the time dependent changes in measured epidermal thickness using four different configurations of the present invention when compared to passive application.
As in previous examples, all test areas of skin were treated using a 5% Urea gel formation and occluded with Parafilm. The urea and occlusive dressings were removed at 30 minutes and 60 minutes to allow measurements to be taken, with the urea and dressing being immediately replaced after the 30 minute test. Four different arrangements of the pairs of displaced magnetic dipolar elements present invention were studied to elucidate the complex relationship between enhanced delivery to human skin and the specific arrangements of the pairs of displaced dipolar elements that make up the present invention.
The four arrangements of pairs of displaced dipolar elements used in this experiment were as follows:
Type ETP000 was a form of the present invention is which a parallel linear array of common pole pairs of 250 gauss peak flux with a centre to centre spatial separation of 2 mm.
Type ETP006 was a combination of two intersecting parallel linear common pole arrays at 90 degrees orientation to each other having a peak magnetic flux of 300 gauss and a spatial separation between pairs of 3.5 mm.
Type ETP008 was a parallel linear array of common pole pairs of 450 gauss peak flux with a centre to centre spatial separation of 4 mm.
Type ETP011 was a combination of two intersecting parallel linear common pole arrays at 90 degrees orientation to each other having a peak magnetic flux of 150 gauss and a spatial separation between pairs of 3 mm.
The segment marked Passive indicted the normal changes in epidermal thickness in response to topical and occluded application of a Urea Gel. This is considered the control.

human epidermis [2] = test: Time dependent epidermal thickness change by OCT after Urea, two magnetic array types vs passive (Example 2); assay type: in vivo; details: for increase in epidermal thickness: passive regions
From the text: In a further in vivo experience, two examples of arrays comprising pairs of displaced magnetic dipolar elements of the present invention were studied to illustrate the essential requirement for the pairs of displaced magnetic dipolar elements to be correctly configured to the diamagnetic property of the active ingredient to be delivered, in addition to the dielectric properties of the target receptor barrier.
Urea was applied to skin in a similar manner to Example 1. The urea and occlusive dressings were removed at 10 minute time periods to take measurements using OTC, with the urea and occlusive dressing being immediately replaced after each set of measurements. Each site was imaged in triplicate for each time point (i.e. three sites, triplicate images, seven time points). The laser images were then analysed to determine the differential change in skin morphology in response to the penetration of urea into facial skin under the influence of two different configurations of the present invention. FIG. 12 summaries this experiment, with the thickness of the epidermis provided next to the image.
Magnetic array Type ETP000 is a magnetic array in which a parallel linear array of common pole pairs of 250 gauss peak flux with a centre to centre spatial separation of 2 mm. Magnetic array Type ETP008 is a parallel linear array of common pole pairs of 450 gauss peak flux with a centre to centre spatial separation of 4 mm.

human skin = test: Delivery of Curcumin into human skin by Multi-Photon Microscopy (Example 4); assay type: in vivo; details: 0.5% w/w in mineral oil, one hour, volar forearm
From the text: • 1) Mineral oil and a solution of Curcumin in mineral oil (0.5% w/w). • 2) 35 mm×35 mm segments of ETP008 and ETP012 magnetic materials; ETP008 being a parallel linear array of common pole pairs of 450 gauss peak flux with a centre to centre spatial separation of 4 mm; ETP012 being an oriented displaced dipolar magnetic element array created by drawing a secondary flux pattern over a linear pattern comprising 2.0 mm poles, creating a pair of displaced dipolar magnetic elements of pitch of 2.5 pairs per centimeter, with the inter-pair flux gradient being 700 gauss or 1750 gauss per centimeter and the secondary field elements being oriented at 90 degrees to the primary and consisting of parallel pairs of displaced dipolar magnetic elements of pitch of 1.5 mm, creating 3.5 pairs per centimeter, with 300 gauss per centimeter oriented flux. • 3) 35 mm×35 mm segments of a “passive” non-magnetic material which is identical to the active materials in all respects except for the presence of the magnetic field. • 4) Six healthy human subjects between the ages of 20 and 40. • 5) Multi-Photon Microscopy apparatus and computer software capable of processing Multi-Photon microscopy images. […]

| SMILES | mean cumulative permeation over 2 h (human epidermis [1]; magnetic array material ETP008, mean±sem) [μg/cm^2] | lag time (human epidermis [1]; magnetic film array ETP008) [min] | steady state flux (human epidermis [1]; magnetic film array ETP008) [μg/cm^2·min] | lag time (human epidermis [1]; non-magnetic passive material) [min] | steady state flux (human epidermis [1]; non-magnetic passive material) [μg/cm^2·min] | mean cumulative permeation over 2 h (human epidermis [1]; non-magnetic passive material, mean±sem) [μg/cm^2] | penetration (changes in epidermal thickness) compared to passive (human epidermal tissues; Type 011 arrangement, 5% Urea gel) | penetration (changes in epidermal thickness) compared to passive (human epidermal tissues; Type ETP000, 5% Urea gel) | penetration (changes in epidermal thickness) compared to passive (human epidermal tissues; Type ETP006, 5% Urea gel) | penetration (changes in epidermal thickness) compared to passive (human epidermal tissues; Type ETP008, 5% Urea gel) | epidermal thickness change (human epidermis [2]; Magnetic array Type ETP000, 30 minutes) [%] | epidermal thickness change (human epidermis [2]; Magnetic array Type ETP000, 60 minutes) [%] | epidermal thickness change (human epidermis [2]; Magnetic array Type ETP008, 30 minutes) [%] | epidermal thickness change (human epidermis [2]; Magnetic array Type ETP008, 60 minutes) [%] | increase in epidermal thickness (human epidermis [2]; 30 minutes) [%] | increase in epidermal thickness (human epidermis [2]; 60 minutes) [%] | Curcumin concentrations in the skin compared with passive material (human skin; ETP008 magnetic material) | Curcumin concentrations in the skin compared with passive material (human skin; ETP012 magnetic material) |
| --- | --- | --- | --- | --- | --- | --- | --- | --- | --- | --- | --- | --- | --- | --- | --- | --- | --- | --- |
| NC(N)=O [Urea] | 89.54±7.34 | 21.13 ± 6.27 | 0.75±0.06 | 40.58 ± 3.98 | 0.24±0.03 | 20.83±2.02 | decreasing normal penetration | enhanced penetrations to different degrees over time | enhanced penetrations to different degrees over time | enhanced penetrations to different degrees over time | 119.5 | 113.25 | 112.6 | 118 | 103.2 | 110 | – | – |
| COc1cc(/C=C/C(=O)CC(=O)/C=C/c2ccc(O)c(OC)c2)ccc1O [Curcumin] | – | – | – | – | – | – | – | – | – | – | – | – | – | – | – | – | significant increase | significant increase |
